# Patent US8629149B2, “Oxopiperazine derivatives for the treatment of pain and epilepsy” (Zalicus Pharmaceuticals Ltd., priority 2009, dated 2014)
# Assays:
# [1] = molecular target: T1, Cav3.2 T-type Ca2+ channels expressed in HEK cells (Homo sapiens, UniProt O95180); test: Cav3.2 voltage-clamp electrophysiological assay; format: cell-based; conditions: Cav3.2 in HEK cells
# T1 construct: expressed in transfected cells; host or cells: HEK cells
# Description: Prior to recording currents from Cav3.2 T-type Ca^2+ channels expressed in HEK cells, the culture media was replaced with extracellular solution (ECS) containing (in mM): 142 CsCl, 10 D-glucose, 2 CaCl2, 1 MgCl2, 10 HEPES, pH adjusted to 7.4 with CsOH. Borosilicate glass patch pipettes, pulled on a P-97 micropipette puller (Sutter Instruments, Novato, Calif.) with typical resistances of 2-4 MW, were backfilled with intracellular solution containing (in mM): 126.5 Cs-methanesulphonate, 2 MgCl2, 10 HEPES, 11 EGTA, 2 Na-ATP, pH adjusted to 7.3 CsOH. […] were recorded in the whole-cell configuration at room temperature (˜21° C.) using an Axopatch 200B (Molecular Devices, Sunnyvale, Calif.) patch-clamp amplifier. Recordings were low-pass filtered at 1 kHz (−3 dB 4-pole Bessel filter), digitized at 2 kHz with a Digidata 1322A interface (Molecular Devices), and acquired using pClamp 9.2 (Molecular Devices). No leak subtraction was used. Test compounds, prepared as 30 mM stock solutions in DMSO and diluted in extracellular buffer, were applied through a gravity driven multi-barrelled array of capillaries (24 gauge) connected to reservoirs controlled by solenoid valves. The effects of compounds on Cav3.2 slow and fast inactivation were evaluated using four different voltage protocols. The voltage dependence of fast and slow channel inactivation was examined using a two pulse protocol. Data were analyzed and fitted using OriginPro v.7.5 (OriginLab, Northampton, Mass.) software.
# male CF1 mice = test: 6 Hz psychomotor seizure model of partial epilepsy; format: in vivo, mouse; parameters: Epilepsy 6 Hz (% Protected): concentration or dose not given beside the values
# Method: Compounds were evaluated for the protection against seizures induced by a 6 Hz, 0.2 ms rectangular pulse width of 3 s duration, at a stimulus intensity of 32 mA (CC97) applied to the cornea of male CF1 mice (20-30 g) according to procedures described by Barton et al, “Pharmacological Characterization of the 6 Hz Psychomotor Seizure Model of Partial Epilepsy,” Epilepsy Res. 47(3):217-27 (2001). Seizures are characterised by the expression of one or more of the following behaviours: stun, forelimb clonus, twitching of the vibrissae and Straub-tail immediately following electrical stimulation.
# mice = test: Mouse rotarod assay; format: in vivo
# Method: To assess a compound's undesirable side effects (toxicity), animals were monitored for overt signs of impaired neurological or muscular function. In mice, the rotarod procedure (Dunham and Miya, J. Am. Pharmacol. Assoc. 46:208-209 (1957)) is used to disclose minimal muscular or neurological impairment (MMI). When a mouse is placed on a rod that rotates at a speed of 6 rpm, the animal can maintain its equilibrium for long periods of time. The animal is considered toxic if it falls off this rotating rod three times during a […].
# [2] = tested on: Lamina I/II spinal cord neurons; test: Lamina assay: current-clamp recordings on lamina I/II spinal cord neurons; format: cell-based, rat; conditions: lamina I and II neurons
# Description: Male Wistar rats (P6 to P9 for voltage-clamp and P15 to P18 for current-clamp recordings) were anaesthetized through intraperitoneal injection of Inactin (Sigma). The spinal cord was then rapidly dissected out and placed in an ice-cold solution protective sucrose solution containing (in mM): 50 sucrose, 92 NaCl, 15 D-Glucose, 26 NaHCO3, 5 KCl, 1.25 NaH2PO4, 0.5 CaCl2, 7 MgSO4, 1 kynurenic acid, and bubbled with 5% CO2/95% O2. The meninges, dura, and dorsal and ventral roots were then removed from the lumbar region of the spinal cord under a dissecting microscope. The “cleaned” lumbar region of the spinal cord was glued to the vibratome stage and immediately immersed in ice cold, bubbled, sucrose solution. For current-clamp recordings, 300 to 350 μm parasagittal slices were cut to preserve the dendritic arbour of lamina I neurons, while 350 to 400 μm transverse slices were prepared for voltage-clamped Nav channel recordings. Slices were allowed to recover for 1 hour at 35° C. in Ringer solution containing (in mM): 125 NaCl, 20 D-Glucose, 26 NaHCO3, 3 KCl, 1.25 NaH2PO4, 2 CaCl2, 1 MgCl2, 1 kynurenic acid, 0.1 picrotoxin, bubbled with 5% CO2/95% O2. The slice recovery chamber was then returned to room temperature (20 to 22° C.) and all recordings were performed at this temperature. […]
# [3] = voltage-dependence of half inactivation
# T1 sequence (O95180 whole entry): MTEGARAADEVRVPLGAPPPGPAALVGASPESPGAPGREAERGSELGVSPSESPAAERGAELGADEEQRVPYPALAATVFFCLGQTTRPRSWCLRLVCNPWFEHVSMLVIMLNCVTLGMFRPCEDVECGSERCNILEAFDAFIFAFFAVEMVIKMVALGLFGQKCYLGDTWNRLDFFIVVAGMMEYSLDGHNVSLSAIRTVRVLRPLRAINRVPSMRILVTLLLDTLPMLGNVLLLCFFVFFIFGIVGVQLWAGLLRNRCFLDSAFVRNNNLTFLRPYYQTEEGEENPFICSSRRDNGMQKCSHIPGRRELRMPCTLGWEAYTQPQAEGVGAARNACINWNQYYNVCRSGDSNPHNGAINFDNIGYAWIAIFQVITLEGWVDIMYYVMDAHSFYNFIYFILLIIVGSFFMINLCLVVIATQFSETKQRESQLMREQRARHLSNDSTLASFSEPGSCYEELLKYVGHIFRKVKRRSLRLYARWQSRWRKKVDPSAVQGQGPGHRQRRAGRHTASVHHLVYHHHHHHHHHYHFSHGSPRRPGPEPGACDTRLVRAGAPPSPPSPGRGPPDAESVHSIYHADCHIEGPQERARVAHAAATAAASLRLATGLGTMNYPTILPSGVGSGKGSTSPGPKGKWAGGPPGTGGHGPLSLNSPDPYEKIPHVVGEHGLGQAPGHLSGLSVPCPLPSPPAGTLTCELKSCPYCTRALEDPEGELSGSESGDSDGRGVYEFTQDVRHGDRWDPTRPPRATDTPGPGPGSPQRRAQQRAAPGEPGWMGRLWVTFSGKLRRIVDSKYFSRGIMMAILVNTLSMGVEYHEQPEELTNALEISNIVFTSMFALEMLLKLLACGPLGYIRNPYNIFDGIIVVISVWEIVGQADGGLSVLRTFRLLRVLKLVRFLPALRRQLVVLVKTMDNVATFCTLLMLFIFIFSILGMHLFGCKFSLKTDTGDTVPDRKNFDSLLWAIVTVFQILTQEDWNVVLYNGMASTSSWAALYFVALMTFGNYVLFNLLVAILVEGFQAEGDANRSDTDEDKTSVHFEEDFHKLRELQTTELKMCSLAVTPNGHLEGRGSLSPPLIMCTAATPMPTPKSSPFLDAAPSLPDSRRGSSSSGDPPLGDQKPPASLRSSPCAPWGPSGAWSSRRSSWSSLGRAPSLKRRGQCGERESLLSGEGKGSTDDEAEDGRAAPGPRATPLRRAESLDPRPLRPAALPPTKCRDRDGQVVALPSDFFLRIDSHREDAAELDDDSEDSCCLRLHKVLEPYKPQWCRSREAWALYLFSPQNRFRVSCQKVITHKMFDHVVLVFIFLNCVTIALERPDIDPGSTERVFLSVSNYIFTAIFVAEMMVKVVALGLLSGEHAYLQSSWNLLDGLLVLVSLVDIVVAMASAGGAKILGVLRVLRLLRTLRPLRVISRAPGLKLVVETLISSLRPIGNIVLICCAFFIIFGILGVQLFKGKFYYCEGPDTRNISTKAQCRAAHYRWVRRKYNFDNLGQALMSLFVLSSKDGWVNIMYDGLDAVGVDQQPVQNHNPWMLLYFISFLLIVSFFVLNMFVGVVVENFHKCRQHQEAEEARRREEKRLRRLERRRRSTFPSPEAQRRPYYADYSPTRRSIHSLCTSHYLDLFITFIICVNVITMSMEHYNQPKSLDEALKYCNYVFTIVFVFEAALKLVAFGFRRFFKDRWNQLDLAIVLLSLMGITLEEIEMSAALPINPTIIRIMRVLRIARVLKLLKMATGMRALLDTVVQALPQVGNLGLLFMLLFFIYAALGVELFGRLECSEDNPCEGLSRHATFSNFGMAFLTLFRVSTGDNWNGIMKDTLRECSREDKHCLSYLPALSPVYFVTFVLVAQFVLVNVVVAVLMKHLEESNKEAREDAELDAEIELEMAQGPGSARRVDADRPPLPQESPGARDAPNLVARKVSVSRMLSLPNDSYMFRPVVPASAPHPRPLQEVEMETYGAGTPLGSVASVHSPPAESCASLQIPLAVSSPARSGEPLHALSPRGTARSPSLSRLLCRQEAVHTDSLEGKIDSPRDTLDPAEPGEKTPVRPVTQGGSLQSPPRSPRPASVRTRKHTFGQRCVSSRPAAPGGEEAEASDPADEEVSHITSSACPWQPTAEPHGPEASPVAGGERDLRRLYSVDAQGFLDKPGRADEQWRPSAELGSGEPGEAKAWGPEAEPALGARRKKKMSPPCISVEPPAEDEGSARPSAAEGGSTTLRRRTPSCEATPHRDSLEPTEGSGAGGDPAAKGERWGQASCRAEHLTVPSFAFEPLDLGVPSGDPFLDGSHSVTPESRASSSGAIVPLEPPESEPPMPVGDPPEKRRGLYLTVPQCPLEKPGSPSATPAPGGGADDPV
SMILES,τ recovery from slow inactivation [1] [ms],Fraction of current recovered at 5.1 s interval [1],Epilepsy 6 Hz (% Protected) (male CF1 mice; 0.25 hour) [%],Epilepsy 6 Hz (% Protected) (male CF1 mice; 0.5 hour) [%],Epilepsy 6 Hz (% Protected) (male CF1 mice; 1 hour) [%],Epilepsy 6 Hz (% Protected) (male CF1 mice; 2 hours) [%],"ED50 (male CF1 mice; Mus musculus, 32 mA, mice) [mg/kg]",% Impaired (mice; 0.25 hr) [%],% Impaired (mice; 0.5 hr) [%],% Impaired (mice; 1 hr) [%],% Impaired (mice; 2 hr) [%],% Impaired (mice; 4 hr) [%],% Spike Change (Mean; % change from control) [2] [%],τ recovery from fast inactivation (ms) [1],τ recovery from slow inactivation (ms) [1],Fraction current remaining at −40 mV ([1]; at −40 mV),"V1/2 fast inactivation (mV) [1, 3] [mV]","V1/2 slow inactivation (mV) [1, 3] [mV]",Epilepsy 6 Hz (% Protected) (male CF1 mice; 4 hours) [%]
"O=C1CN(C(=O)CC(c2ccccc2)c2ccccc2)CCN1 [Compound 4, 4-(3,3-diphenylpropanoyl)piperazin-2-one]",495,0.98,50,88,13,25,192,0,0,0,0,0,−5.3,,,,,,
"O=C1CN(C(=O)CC(c2ccc(Cl)cc2)c2ccc(Cl)cc2)CCN1 [Compound 3, 4-(3,3-bis(4-chlorophenyl)propanoyl)piperazin-2-one]",,0.91,0,0,0,0,,0,0,0,0,0,28.7,*512 ms,*903 ms,*0.40,−64,−78,0
